Source: patent US20180177725A1, “CELL MEMBRANE-FORMED NANOSCALE VESICLES AND METHODS OF USING THEREOF” (WASHINGTON STATE UNIVERSITY, priority 2015, published 2018)

Test system: LPS-induced acute lung inflammation
Experiment: Mouse acute lung inflammatory (ALI) model, LPS-induced
Assay type: in vivo
Conditions: TPCA-1 0.33 mg/kg i.v.
Description: Mouse acute lung inflammatory (ALI) model: CD1 male mice were utilized. ALI was induced by intracheal spray of LPS (10 mg/kg) using a Model ICA-IC-M MicroSprayer Aerosolizer (Pen-Century). Approximately 3 hours after LPS was challenged, mice were intravenously injected with HBSS, free drug (TPCA-1), TPCA-1 loaded erythrocyte vesicles and TPCA-1 loaded HL 60 vesicles at two doses of 0.33 and 1 mg/ kg.
Bronchoalveolar lavage fluid collection and cell count: At 13 hours post-LPS administration, mice were anesthetized with an i.p. injection of ketamine and xylazine mixture. The trachea was cannulated, and 1 ml HBSS was infused intratracheally and withdrawn to obtain lavage fluid. This procedure was repeated twice. […] The total cell number was determined with a hemocytometer. […] The percentages of neutrophils were determined after counting 200 cells in randomly selected fields.
Cytokine generation: Cytokine levels in the BAL were determined using commercial ELISA kits for TNF-α and IL-6 (Biolegend, San Diego, Calif.) according to the manufacturer's instructions. […]
Measurement of lung vascular permeability: The permeability was evaluated via the larvage protein content change. The total protein concentrations were determined using a BCA protein assay kit (Thermo scientific, Rockford, Ill.).

Structure (SMILES): NC(=O)Nc1sc(-c2ccc(F)cc2)cc1C(N)=O [TPCA-1, 2-[(Aminocarbonyl)amino]-5-(4-fluorophenyl)-3-thiophenecarboxamide]
- therapeutic benefit on neutrophil infiltration at low dose: rarely showed this benefit
